From patent publication US20250382269A1 (CFD Research Corporation, priority 2019, published 2025)

How the values were obtained:
[1] = tested on: HepaRG cells; test: Cytotoxicity MTT assay in HepaRG cells; type: cell-based, human; details: 48 h
Description: (§1) Additionally, the antimicrobial compounds were analyzed for cytotoxicity. […] We utilized the standard MTT assay (Promega CellTiter 96) and GraphPad Prism 7 software to determine EC50 values for each analogue. Briefly, 20,000 HepG2 cells in 200 μl of the ATCC recommended media were seeded in each well of a 96-well plate with a moisture barrier created in the outermost wells. The cells were allowed to attach overnight at 37° C., and then observed under phase contrast microscopy for proper morphological characteristics. If cells appeared healthy and attached, test compounds were added in 7 concentrations from […] (n=3) from freshly prepared DMSO stock plates. […] Once incubations were complete, the spectrophotometric absorbance of the samples was measured at a wavelength of 595 nm. […] For the HepaRG assay, NoSpin HepaRG™ cells (Lonza, cat #NSHPRG) were thawed and plated with 20,000 cells per well. They were allowed to attach for 4 h (optimal DME profile per Lonza's testing) before dosing following the identical protocol as above.

[2] = tested on: Candida glabrata; test: MIC/MFC against Candida glabrata strains; type: cell-based; details: Nakaseomyces glabratus; #584
[3] = tested on: branched chain amino acid synthesis pathway (ILVB); test: RNA sequencing / transcriptomic and metabolic mechanism of action studies
[4] = tested on: S. aureus cell wall synthesis; test: Macromolecular synthesis assay (glucosamine incorporation into cell wall); type: cell-based; details: dose-response, FIG. 2A-2B
[5] = MIC with and without 2-ketobutyrate (synergy); type: cell-based
[6] = tested on: B. subtilis / cytotoxicity EC50; test: Selectivity index (SI) using B. subtilis MICs
Description: as §1

| Compound | Cytotoxicity HepaRG EC50 [1] | SI (selectivity index) [6] | further results |
| --- | --- | --- | --- |
| Oc1ccc(Sc2c[nH]c3ccccc23)cc1 [Compound 156I, 4-((1H-indol-3-yl)thio)phenol] | >20 µg/mL | – | – |
| Brc1ccc(Sc2c[nH]c3ccccc23)cc1 [Compound 156K, 3-((4-bromophenyl)thio)-1H-indole] | 32 µg/mL | – | – |
| Clc1c(Cl)c(Cl)c(Sc2c[nH]c3ccc(Br)cc23)c(Cl)c1Cl [Compound 174AD, 5-bromo-3-((perchlorophenyl)thio)-1H-indole] | – | – | MIC [2]: > 50 µg/mL |
| Brc1ccc2[nH]cc(Sc3ccccc3Br)c2c1 [Compound 174I, 5-bromo-3-((2-bromophenyl)thio)-1H-indole] | – | – | mechanism of action from transcriptomic and metabolic studies [3]: branched chain amino acid biosynthesis inhibition; cell wall synthesis inhibition (glucosamine incorporation) [4]: substantial cell wall synthesis inhibition |
| Nc1ccccc1Sc1c[nH]c2ccc(Br)cc12 [Compound 174M, 2-((5-bromo-1H-indol-3-yl)thio)aniline] | 85 µg/mL | – | MIC with 200 μg/mL 2-ketobutyrate ([5]; with 200 μg/mL 2-ketobutyrate): 0.781; MIC with 800 μg/mL 2-ketobutyrate ([5]; with 800 μg/mL 2-ketobutyrate): less than 0.39; mechanism of action from transcriptomic and metabolic studies [3]: branched chain amino acid biosynthesis inhibition |
| FC(F)(F)c1ccc2[nH]cc(Sc3ccccc3C(F)(F)F)c2c1 [Compound 177F, 5-(trifluoromethyl)-3-((2-(trifluoromethyl)phenyl)thio)-1H-indole] | – | 19.1 | – |
| CCc1ccccc1Sc1c[nH]c2ccc(C(F)(F)F)cc12 [Compound 177G, 3-((2-ethylphenyl)thio)-5-(trifluoromethyl)-1H-indole] | – | 18.9 | – |
| OCc1[nH]c2ccc(Br)cc2c1Sc1ccccc1Br [Compound 177H, (5-bromo-3-((2-bromophenyl)thio)-1H-indol-2-yl)methanol] | – | 20.4 | – |
| CCc1ccccc1Sc1c(CO)[nH]c2ccc(C(F)(F)F)cc12 [Compound 177I, (3-((2-ethylphenyl)thio)-5-(trifluoromethyl)-1H-indol-2-yl)methanol] | – | 10.0 | – |
| CN[C@H](CC(C)C)C(=O)N[C@H]1C(=O)N[C@@H](CC(N)=O)C(=O)N[C@H]2C(=O)N[C@H]3C(=O)N[C@H](C(=O)N[C@H](C(=O)O)c4cc(O)cc(O)c4-c4cc3ccc4O)[C@H](O)c3ccc(c(Cl)c3)Oc3cc2cc(c3O[C@@H]2O[C@H](CO)[C@@H](O)[C@H](O)[C@H]2O[C@H]2C[C@](C)(N)[C@H](O)[C@H](C)O2)Oc2ccc(cc2Cl)[C@H]1O [vancomycin, reference compound] | – | – | cell wall synthesis inhibition (glucosamine incorporation) [4]: increasingly inhibits glucosamine from incorporating into a cell wall |
